Data published in PubChem BioAssay (NCI).
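Values below derive from 48-hour exposures of cells grown in 96-well plates, with endpoints linearly interpolated between the two concentrations bracketing the appropriate inhibition level. TGI marks complete inhibition of growth.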

What was measured:
Assay in all cases: DTP human tumour cell line panel, 48 h
786-0 renal = tested on: 786-0 renal
A498 renal = tested on: A498 renal
A549 NSCLC = tested on: A549 NSCLC
ACHN renal = tested on: ACHN renal
BT-549 breast = tested on: BT-549 breast
CAKI-1 renal = tested on: CAKI-1 renal
CCRF-CEM leukemia = tested on: CCRF-CEM leukemia
COLO 205 colon = tested on: COLO 205 colon
DU-145 prostate = tested on: DU-145 prostate
EKVX NSCLC = tested on: EKVX NSCLC
HCC-2998 colon = tested on: HCC-2998 colon
HCT-116 colon = tested on: HCT-116 colon
HCT-15 colon = tested on: HCT-15 colon
HOP-62 NSCLC = tested on: HOP-62 NSCLC
HOP-92 NSCLC = tested on: HOP-92 NSCLC
HS 578T breast = tested on: HS 578T breast
HT29 colon = tested on: HT29 colon
IGROV1 ovarian = tested on: IGROV1 ovarian
K-562 leukemia = tested on: K-562 leukemia
KM12 colon = tested on: KM12 colon
M14 melanoma = tested on: M14 melanoma
MALME-3M melanoma = tested on: MALME-3M melanoma
MCF7 breast = tested on: MCF7 breast
MDA-MB-231 breast = tested on: MDA-MB-231 breast
MDA-MB-435 = tested on: MDA-MB-435
MDA-N = tested on: MDA-N
MOLT-4 leukemia = tested on: MOLT-4 leukemia
NCI-H226 lung = tested on: NCI-H226 lung
NCI-H23 lung = tested on: NCI-H23 lung
NCI-H460 lung = tested on: NCI-H460 lung
NCI-H522 lung = tested on: NCI-H522 lung
NCI/ADR-RES ovarian = tested on: NCI/ADR-RES ovarian
OVCAR-3 ovarian = tested on: OVCAR-3 ovarian
OVCAR-4 ovarian = tested on: OVCAR-4 ovarian
OVCAR-5 ovarian = tested on: OVCAR-5 ovarian
OVCAR-8 ovarian = tested on: OVCAR-8 ovarian
PC-3 prostate = tested on: PC-3 prostate
RPMI-8226 leukemia = tested on: RPMI-8226 leukemia
RXF 393 renal = tested on: RXF 393 renal
SF-268 CNS = tested on: SF-268 CNS
SF-295 CNS = tested on: SF-295 CNS
SF-539 CNS = tested on: SF-539 CNS
SK-MEL-2 melanoma = tested on: SK-MEL-2 melanoma
SK-MEL-28 melanoma = tested on: SK-MEL-28 melanoma
SK-MEL-5 melanoma = tested on: SK-MEL-5 melanoma
SK-OV-3 ovarian = tested on: SK-OV-3 ovarian
SN12C renal = tested on: SN12C renal
SNB-19 CNS = tested on: SNB-19 CNS
SNB-75 CNS = tested on: SNB-75 CNS
SW-620 colon = tested on: SW-620 colon
T-47D breast = tested on: T-47D breast
TK-10 renal = tested on: TK-10 renal
U251 CNS = tested on: U251 CNS
UACC-257 melanoma = tested on: UACC-257 melanoma
UO-31 renal = tested on: UO-31 renal
HL-60(TB) leukemia = tested on: HL-60(TB) leukemia
LOX IMVI melanoma = tested on: LOX IMVI melanoma
UACC-62 melanoma = tested on: UACC-62 melanoma

With `C=CC(O)(CBr)CCC(Br)C(C)(C)Cl` (stereo not drawn) the TGI (786-0 renal) was over 10 µM, the TGI (A498 renal) was over 10 µM and the TGI (A549 NSCLC) was over 10 µM. The TGI (ACHN renal) was over 10 µM, the TGI (BT-549 breast) was over 10 µM and the TGI (CAKI-1 renal) was over 10 µM. For the same compound, the TGI (CCRF-CEM leukemia) was over 10 µM, the TGI (COLO 205 colon) was over 10 µM and the TGI (DU-145 prostate) was over 10 µM. For the same compound, the TGI (EKVX NSCLC) was over 10 µM, the TGI (HCC-2998 colon) was over 10 µM and the TGI (HCT-116 colon) was over 10 µM. It also gave a TGI (HCT-15 colon) of over 10 µM, a TGI (HOP-62 NSCLC) of over 10 µM and a TGI (HOP-92 NSCLC) of over 10 µM. The TGI (HS 578T breast) was over 10 µM, the TGI (HT29 colon) was over 10 µM and the TGI (IGROV1 ovarian) was over 10 µM. The TGI (K-562 leukemia) was over 10 µM, the TGI (KM12 colon) was over 10 µM and the TGI (M14 melanoma) was over 10 µM. For the same compound, the TGI (MALME-3M melanoma) was over 10 µM, the TGI (MCF7 breast) was over 10 µM and the TGI (MDA-MB-231 breast) was over 10 µM. For the same compound, the TGI (MDA-MB-435) was over 10 µM, the TGI (MDA-N) was over 10 µM and the TGI (MOLT-4 leukemia) was over 10 µM. It also gave a TGI (NCI-H226 lung) of over 10 µM, a TGI (NCI-H23 lung) of over 10 µM and a TGI (NCI-H460 lung) of over 10 µM. It also gave a TGI (NCI-H522 lung) of over 10 µM, a TGI (NCI/ADR-RES ovarian) of over 10 µM and a TGI (OVCAR-3 ovarian) of over 10 µM. For the same compound, the TGI (OVCAR-4 ovarian) was over 10 µM, the TGI (OVCAR-5 ovarian) was over 10 µM and the TGI (OVCAR-8 ovarian) was over 10 µM. For the same compound, the TGI (PC-3 prostate) was over 10 µM, the TGI (RPMI-8226 leukemia) was over 10 µM and the TGI (RXF 393 renal) was over 10 µM. For the same compound, the TGI (SF-268 CNS) was over 10 µM, the TGI (SF-295 CNS) was over 10 µM and the TGI (SF-539 CNS) was over 10 µM. It also gave a TGI (SK-MEL-2 melanoma) of over 10 µM, a TGI (SK-MEL-28 melanoma) of over 10 µM and a TGI (SK-MEL-5 melanoma) of over 10 µM. The TGI (SK-OV-3 ovarian) was over 10 µM, the TGI (SN12C renal) was over 10 µM and the TGI (SNB-19 CNS) was over 10 µM. For the same compound, the TGI (SNB-75 CNS) was over 10 µM, the TGI (SW-620 colon) was over 10 µM and the TGI (T-47D breast) was over 10 µM. The TGI (TK-10 renal) was over 10 µM, the TGI (U251 CNS) was over 10 µM and the TGI (UACC-257 melanoma) was over 10 µM. It also gave a TGI (UO-31 renal) of over 10 µM.

`CC(C#N)NCc1ccc(C(C)NC(C)C#N)cc1` (stereo not drawn) was tested, and the TGI (786-0 renal) was over 100 µM, the TGI (A498 renal) was over 100 µM and the TGI (A549 NSCLC) was over 100 µM. For the same compound, the TGI (ACHN renal) was over 100 µM, the TGI (BT-549 breast) was over 100 µM and the TGI (CAKI-1 renal) was over 100 µM. The TGI (CCRF-CEM leukemia) was over 100 µM, the TGI (COLO 205 colon) was over 100 µM and the TGI (DU-145 prostate) was over 100 µM. The TGI (EKVX NSCLC) was over 100 µM, the TGI (HCC-2998 colon) was over 100 µM and the TGI (HCT-116 colon) was over 100 µM. The TGI (HCT-15 colon) was over 100 µM, the TGI (HL-60(TB) leukemia) was over 100 µM and the TGI (HOP-92 NSCLC) was over 100 µM. The TGI (HS 578T breast) was over 100 µM, the TGI (HT29 colon) was over 100 µM and the TGI (IGROV1 ovarian) was over 100 µM. For the same compound, the TGI (K-562 leukemia) was over 100 µM, the TGI (KM12 colon) was over 100 µM and the TGI (LOX IMVI melanoma) was over 100 µM. The TGI (M14 melanoma) was over 100 µM, the TGI (MALME-3M melanoma) was over 100 µM and the TGI (MCF7 breast) was over 100 µM. The TGI (MDA-MB-231 breast) was over 100 µM, the TGI (MDA-MB-435) was over 100 µM and the TGI (MDA-N) was over 100 µM. It also gave a TGI (MOLT-4 leukemia) of over 100 µM, a TGI (NCI-H226 lung) of over 100 µM and a TGI (NCI-H23 lung) of over 100 µM. The TGI (NCI-H460 lung) was over 100 µM, the TGI (NCI-H522 lung) was over 100 µM and the TGI (NCI/ADR-RES ovarian) was over 100 µM. The TGI (OVCAR-3 ovarian) was over 100 µM, the TGI (OVCAR-4 ovarian) was over 100 µM and the TGI (OVCAR-5 ovarian) was over 100 µM. It also gave a TGI (OVCAR-8 ovarian) of over 100 µM, a TGI (PC-3 prostate) of over 100 µM and a TGI (RXF 393 renal) of over 100 µM. It also gave a TGI (SF-268 CNS) of over 100 µM, a TGI (SF-295 CNS) of over 100 µM and a TGI (SF-539 CNS) of over 100 µM. It also gave a TGI (SK-MEL-2 melanoma) of over 100 µM, a TGI (SK-MEL-28 melanoma) of over 100 µM and a TGI (SK-MEL-5 melanoma) of over 100 µM. The TGI (SK-OV-3 ovarian) was over 100 µM, the TGI (SN12C renal) was over 100 µM and the TGI (SNB-19 CNS) was over 100 µM. It also gave a TGI (SW-620 colon) of over 100 µM, a TGI (T-47D breast) of over 100 µM and a TGI (TK-10 renal) of over 100 µM. For the same compound, the TGI (U251 CNS) was over 100 µM, the TGI (UACC-257 melanoma) was over 100 µM and the TGI (UACC-62 melanoma) was over 100 µM. For the same compound, the TGI (UO-31 renal) was over 100 µM.

For `O=c1cn[nH]c2nc3ccccc3n12`, the TGI (786-0 renal) was over 100 µM, the TGI (A498 renal) was over 100 µM and the TGI (A549 NSCLC) was over 100 µM. The TGI (ACHN renal) was over 100 µM, the TGI (BT-549 breast) was over 100 µM and the TGI (CAKI-1 renal) was over 100 µM. The TGI (CCRF-CEM leukemia) was over 100 µM, the TGI (COLO 205 colon) was over 100 µM and the TGI (DU-145 prostate) was over 100 µM. The TGI (EKVX NSCLC) was over 100 µM, the TGI (HCC-2998 colon) was over 100 µM and the TGI (HCT-116 colon) was over 100 µM. The TGI (HCT-15 colon) was over 100 µM, the TGI (HL-60(TB) leukemia) was over 100 µM and the TGI (HOP-62 NSCLC) was over 100 µM. It also gave a TGI (HOP-92 NSCLC) of over 100 µM, a TGI (HS 578T breast) of over 100 µM and a TGI (HT29 colon) of over 100 µM. For the same compound, the TGI (IGROV1 ovarian) was over 100 µM, the TGI (KM12 colon) was over 100 µM and the TGI (LOX IMVI melanoma) was over 100 µM. The TGI (M14 melanoma) was over 100 µM, the TGI (MALME-3M melanoma) was over 100 µM and the TGI (MCF7 breast) was over 100 µM. The TGI (MDA-MB-231 breast) was over 100 µM, the TGI (MDA-MB-435) was over 100 µM and the TGI (MDA-N) was over 100 µM. For the same compound, the TGI (MOLT-4 leukemia) was over 100 µM, the TGI (NCI-H226 lung) was over 100 µM and the TGI (NCI-H23 lung) was over 100 µM. For the same compound, the TGI (NCI-H460 lung) was over 100 µM, the TGI (NCI-H522 lung) was over 100 µM and the TGI (NCI/ADR-RES ovarian) was over 100 µM. For the same compound, the TGI (OVCAR-4 ovarian) was over 100 µM, the TGI (OVCAR-5 ovarian) was over 100 µM and the TGI (OVCAR-8 ovarian) was over 100 µM. The TGI (PC-3 prostate) was over 100 µM, the TGI (RXF 393 renal) was over 100 µM and the TGI (SF-268 CNS) was over 100 µM. The TGI (SF-295 CNS) was over 100 µM, the TGI (SF-539 CNS) was over 100 µM and the TGI (SK-MEL-2 melanoma) was over 100 µM. For the same compound, the TGI (SK-MEL-28 melanoma) was over 100 µM, the TGI (SK-MEL-5 melanoma) was over 100 µM and the TGI (SN12C renal) was over 100 µM. It also gave a TGI (SNB-19 CNS) of over 100 µM, a TGI (SNB-75 CNS) of over 100 µM and a TGI (SW-620 colon) of over 100 µM. For the same compound, the TGI (T-47D breast) was over 100 µM, the TGI (TK-10 renal) was over 100 µM and the TGI (U251 CNS) was over 100 µM. The TGI (UACC-257 melanoma) was over 100 µM and the TGI (UO-31 renal) was over 100 µM.
